Laboratory results as given in article PMC4300089, “Structure-Guided Design of Selective Epac1 and Epac2 Agonists” (PLoS Biology, 2015).

Assays:
[1] = target: T1, Epac2 (Mus musculus, UniProt Q9EQZ6); assay: Cellular Epac activity: Rap•GTP levels in U2OS cells stably expressing Epac2; format: cell-based, homo sapiens; settings: for rel. RapGTP: relative to induction with forskolin and IBMX, Fig. 6C
T1 construct: pBabe-Flag-Epac2 (Epac2, mus musculus, amino acids 1–993); expressed in transfected cells; host or cells: U2OS
T1 sequence (Q9EQZ6 1-993 isoform Q9EQZ6-3): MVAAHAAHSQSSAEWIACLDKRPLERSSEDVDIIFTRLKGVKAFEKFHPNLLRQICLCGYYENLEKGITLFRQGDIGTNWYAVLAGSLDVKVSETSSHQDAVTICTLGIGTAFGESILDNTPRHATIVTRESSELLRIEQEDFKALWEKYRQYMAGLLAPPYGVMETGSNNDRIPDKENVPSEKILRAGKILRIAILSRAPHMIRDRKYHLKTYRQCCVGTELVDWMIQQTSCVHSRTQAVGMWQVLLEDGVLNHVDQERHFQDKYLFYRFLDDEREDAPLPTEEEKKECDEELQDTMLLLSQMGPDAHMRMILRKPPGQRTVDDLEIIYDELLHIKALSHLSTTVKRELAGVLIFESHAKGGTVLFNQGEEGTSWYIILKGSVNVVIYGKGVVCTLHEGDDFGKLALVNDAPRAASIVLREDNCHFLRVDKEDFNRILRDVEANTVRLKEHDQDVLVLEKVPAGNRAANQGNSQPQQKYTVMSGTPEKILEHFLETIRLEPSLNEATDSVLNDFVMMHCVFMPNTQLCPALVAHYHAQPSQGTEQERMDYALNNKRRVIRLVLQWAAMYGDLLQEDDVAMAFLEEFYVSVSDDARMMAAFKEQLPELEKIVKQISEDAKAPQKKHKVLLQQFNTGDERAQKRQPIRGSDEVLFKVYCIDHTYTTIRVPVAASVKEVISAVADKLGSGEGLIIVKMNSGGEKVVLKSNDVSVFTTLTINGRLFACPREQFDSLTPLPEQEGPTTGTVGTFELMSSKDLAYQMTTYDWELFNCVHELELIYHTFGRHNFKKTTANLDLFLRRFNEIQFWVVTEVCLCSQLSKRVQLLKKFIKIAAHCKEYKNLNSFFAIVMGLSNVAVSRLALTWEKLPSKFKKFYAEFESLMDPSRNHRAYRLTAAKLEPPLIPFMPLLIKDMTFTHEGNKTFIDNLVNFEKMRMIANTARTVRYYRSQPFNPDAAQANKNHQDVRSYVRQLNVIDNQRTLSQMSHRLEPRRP
Description: Rap•GTP levels were determined by precipitating GTP-bound Rap specifically from cell lysates and subsequent western Blotting with an α-Rap antibody (Santa Cruz Biotechnology). To generate stable cell lines, U2OS cells were transfected with pBabe-Flag-Epac1 (Epac1, homo sapiens, amino acids 1–881) or pBabe-Flag-Epac2 (Epac2, mus musculus, amino acids 1–993), selected for Epac expression and maintained under selection with 2 mg/l puromycin. The cells were cultured according to standard protocols. The activity of PKA was determined by western blotting with a monoclonal α-VASP antibody (BD Transduction Laboratories). Blots were developed by enhanced chemiluminescence (ECL) and the use of X-ray films; for quantification films were scanned. The intensities of the Rap•GTP bands and the upper band of VASP (P-VASP) were determined for each condition in ImageJ and normalized to the stimulation with forskolin and IBMX for each blot.

[2] = target: T2, Epac2^Δ280,K450A (Mus musculus, UniProt Q9EQZ6, K468A); assay: Epac activation assay, Epac2 K450A mutant; format: biochemical
T2 construct: made in house
T2 sequence (Q9EQZ6 281-993 isoform Q9EQZ6-3 K450A): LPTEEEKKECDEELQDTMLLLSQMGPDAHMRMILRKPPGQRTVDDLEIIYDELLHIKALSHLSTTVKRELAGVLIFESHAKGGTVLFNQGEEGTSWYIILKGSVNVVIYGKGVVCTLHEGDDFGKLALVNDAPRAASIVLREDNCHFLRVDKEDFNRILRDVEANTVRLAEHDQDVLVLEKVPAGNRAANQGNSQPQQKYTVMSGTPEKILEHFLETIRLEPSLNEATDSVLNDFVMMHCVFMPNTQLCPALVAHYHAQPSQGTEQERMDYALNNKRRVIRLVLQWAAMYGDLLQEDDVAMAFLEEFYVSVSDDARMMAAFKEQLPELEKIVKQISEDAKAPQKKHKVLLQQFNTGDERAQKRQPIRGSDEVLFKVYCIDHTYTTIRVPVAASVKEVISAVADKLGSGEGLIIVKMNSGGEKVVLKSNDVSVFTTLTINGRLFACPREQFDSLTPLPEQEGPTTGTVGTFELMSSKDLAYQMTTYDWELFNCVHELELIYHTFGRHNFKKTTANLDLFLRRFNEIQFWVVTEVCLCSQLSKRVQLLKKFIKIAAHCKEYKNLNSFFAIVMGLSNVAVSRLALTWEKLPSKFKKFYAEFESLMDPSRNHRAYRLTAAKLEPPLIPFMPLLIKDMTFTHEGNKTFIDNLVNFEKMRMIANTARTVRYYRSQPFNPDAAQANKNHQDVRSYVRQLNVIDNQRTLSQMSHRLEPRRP
Description: Murine Epac2 was used as all previous structural studies were performed with it.
The activity of Epac was determined by a fluorescence assay. […] The fluorescence intensity of Rap1B•mGDP is approximately twice that of free mGDP, and thus, nucleotide exchange can be observed as a decay in fluorescence upon the addition of excess unlabeled GDP.

SMILES	rel. RapGTP [1]	kobs ([2]; 0.01 μM compound) [s⁻¹]	kobs ([2]; 0.03 μM compound) [s⁻¹]	kobs ([2]; 0.05 μM compound) [s⁻¹]	kobs ([2]; 0.08 μM compound) [s⁻¹]	kobs ([2]; 0.2 μM compound) [s⁻¹]	kobs ([2]; 0.3 μM compound) [s⁻¹]	kobs ([2]; 0.5 μM compound) [s⁻¹]	kobs ([2]; 0.6 μM compound) [s⁻¹]	kobs ([2]; 0.7 μM compound) [s⁻¹]	kobs ([2]; 0.8 μM compound) [s⁻¹]	kobs ([2]; 1 μM compound) [s⁻¹]	kobs ([2]; 2 μM compound) [s⁻¹]	kobs ([2]; 3 μM compound) [s⁻¹]	kobs ([2]; 4 μM compound) [s⁻¹]	kobs ([2]; 5 μM compound) [s⁻¹]	kobs ([2]; 6 μM compound) [s⁻¹]	kobs ([2]; 7 μM compound) [s⁻¹]	kobs ([2]; 8 μM compound) [s⁻¹]	kobs ([2]; 10 μM compound) [s⁻¹]	also measured
Nc1ncnc2c1nc(Sc1ccc(Cl)cc1)n2[C@@H]1O[C@@H]2COP(=O)(O)O[C@H]2[C@H]1O [L-026, 8-pCPT-cAMP]	0.7828	–	–	–	–	–	–	–	–	–	–	–	–	–	–	–	–	–	–	–	–
Nc1ncnc2c1ncn2C1OC2COP(O)(=S)OC2C1O (centres unmarked) [S-000, Sp-cAMPS]	–	2.9e-05	3.7e-05	4.5e-05	5.2e-05	9.9e-05	0.000114	0.000137	0.000137	0.000253	0.000277	0.000309	0.000364	0.00043	0.000497	0.000529	0.000661	0.000655	0.000698	0.000703	kobs ([2]; 20 μM compound): 0.000752 s⁻¹; kobs ([2]; 30 μM compound): 0.000754 s⁻¹; kobs ([2]; 40 μM compound): 0.000809 s⁻¹; kobs ([2]; 50 μM compound): 0.000778 s⁻¹; kobs ([2]; 60 μM compound): 0.000824 s⁻¹; kobs ([2]; 70 μM compound): 0.000828 s⁻¹; kobs ([2]; 80 μM compound): 0.000833 s⁻¹; kobs ([2]; 100 μM compound): 0.000821 s⁻¹
Nc1ncnc2c1nc(SCc1ccccc1)n2[C@@H]1O[C@@H]2CO[P@](O)(=S)O[C@H]2[C@H]1O [S-220, Sp-8-BnT-cAMPS]	1.2025	–	0.000139	0.000199	0.000277	0.000564	0.000705	0.000763	0.000845	0.000882	0.000882	0.000894	0.000904	0.000886	0.000912	0.000879	0.00102	0.00106	0.00109	0.00103	kobs ([2]; 0.001 μM compound): 3.1e-05 s⁻¹; kobs ([2]; 0.003 μM compound): 3.7e-05 s⁻¹; kobs ([2]; 0.005 μM compound): 4.4e-05 s⁻¹; kobs ([2]; 0.008 μM compound): 5.2e-05 s⁻¹; kobs ([2]; 0.02 μM compound): 0.00011 s⁻¹; kobs ([2]; 0.04 μM compound): 0.000168 s⁻¹; kobs ([2]; 0.06 μM compound): 0.000232 s⁻¹; kobs ([2]; 0.07 μM compound): 0.00026 s⁻¹; kobs ([2]; 0.1 μM compound): 0.000306 s⁻¹; kobs ([2]; 0.4 μM compound): 0.000743 s⁻¹; kmax-value ([2]; Epac2^Δ280,K450A): reduced to that of S-000; activation of Epac2 in cells [1]: efficiently activated
Nc1ncnc2c1ncn2[C@@H]1O[C@@H]2COP(=O)(O)O[C@H]2[C@H]1O [cAMP, reference compound]	–	2.72e-05	–	4e-05	5.02e-05	8.53e-05	0.000105	0.000137	0.000149	0.000155	0.000159	0.000183	0.000228	0.000276	0.000288	0.000293	0.0003	0.000286	0.0003	0.000289	kobs ([2]; 0.1 μM compound): 5.2e-05 s⁻¹; kobs ([2]; 0.4 μM compound): 0.000119 s⁻¹; kobs ([2]; 20 μM compound): 0.000309 s⁻¹; kobs ([2]; 30 μM compound): 0.000319 s⁻¹; kobs ([2]; 40 μM compound): 0.000313 s⁻¹; kobs ([2]; 50 μM compound): 0.000318 s⁻¹; kobs ([2]; 60 μM compound): 0.00031 s⁻¹; kobs ([2]; 70 μM compound): 0.000323 s⁻¹; kobs ([2]; 80 μM compound): 0.000319 s⁻¹; kobs ([2]; 100 μM compound): 0.000327 s⁻¹
COC1C2OP(=O)(O)OCC2OC1n1c(Sc2ccc(Cl)cc2)nc2c(N)ncnc21 [D-007, 8-pCPT-2′-O-Me-cAMP, reference compound]	0.3431	–	–	–	–	–	–	–	–	–	–	–	–	–	–	–	–	–	–	–	activation of Epac2 in cells [1]: only minor effects
